From patent US12178809B2, “Pyridinyl sulfonamide derivatives, pharmaceutical compositions and uses thereof” (Boehringer Ingelheim International GmbH, priority 2018, dated 2024) come the findings set out here.

Where a name gives a salt, the structure may show the parent alone. Read-outs that look alike come from different tables or passages of the source. Some results are limits rather than exact numbers.

In experiment [1] the target is human AOC3 enzyme (Homo sapiens (Human), UniProt Q16853). As to the kind of experiment: AOC3 biochemical assay (MAO-Glo). The source says: The MAO-Glo™ Assay (commercially available from PROMEGA, #V1402) provides a sensitive method for the measurement of monoamine oxidase (MAO) activity (Valley, M. P. et al., 2006, Anal. Biochem. 359: 238-246) from a variety of tissues, biofluids or recombinant expressed or purified enzymes. As substrate a derivate of the beetle luciferin ((4S)-4,5-dihydro-2-(6-hydroxybenzothiazolyl)-4-thiazole-carboxylic acid) is used, which is oxidized at a primary amine moiety. After a spontaneous elimination and a catalyzed esterase reaction, the turnover of the luciferine by the luciferase is recorded as a signal of AOC3 activity.
Chain of human AOC3 enzyme (Q16853 whole entry): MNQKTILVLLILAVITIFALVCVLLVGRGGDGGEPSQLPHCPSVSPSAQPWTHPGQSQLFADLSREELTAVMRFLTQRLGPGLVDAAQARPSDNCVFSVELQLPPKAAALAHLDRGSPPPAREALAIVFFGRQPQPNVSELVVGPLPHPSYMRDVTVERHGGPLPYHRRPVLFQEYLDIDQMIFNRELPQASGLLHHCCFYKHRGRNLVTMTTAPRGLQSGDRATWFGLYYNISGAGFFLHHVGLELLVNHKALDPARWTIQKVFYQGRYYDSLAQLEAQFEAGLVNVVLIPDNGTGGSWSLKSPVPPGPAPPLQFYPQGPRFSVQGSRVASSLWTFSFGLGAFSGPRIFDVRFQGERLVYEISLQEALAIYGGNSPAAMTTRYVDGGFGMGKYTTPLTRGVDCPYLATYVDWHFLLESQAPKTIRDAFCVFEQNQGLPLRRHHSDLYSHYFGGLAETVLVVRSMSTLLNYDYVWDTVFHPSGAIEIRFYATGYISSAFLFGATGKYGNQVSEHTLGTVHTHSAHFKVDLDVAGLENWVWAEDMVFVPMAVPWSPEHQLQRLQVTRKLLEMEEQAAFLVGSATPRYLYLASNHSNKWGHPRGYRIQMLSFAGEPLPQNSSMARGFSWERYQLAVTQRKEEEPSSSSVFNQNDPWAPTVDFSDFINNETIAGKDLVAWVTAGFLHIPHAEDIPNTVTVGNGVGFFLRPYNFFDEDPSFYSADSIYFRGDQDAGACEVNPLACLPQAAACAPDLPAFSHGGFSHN
An aliquot of 3 μL of the compound dilution is added to a 384 well plate (Optiplate, PS, flat bottom, white, PERKIN ELMER, #6007290) with a final DMSO concentration of 6.6%. Recombinant CHO cells, overexpressing the human (1500 cells/well), mouse (1000 cells/well) or rat (500 cells/well) AOC3 enzyme are diluted in reaction buffer and added in a volume of 15 μL to the wells. After incubation for 20 minutes at 37° C., 2 μL of MAO substrate (dissolved in DMSO at 16 mM, adjusted to assay concentration in reaction buffer to a final assay concentration of 20 μM) is added and further incubated for 60 minutes at 37° C. The turnover of the substrate is determined by the addition of 20 μL of the detection-mix which was generated by the addition of reconstitution buffer with esterase (PROMEGA, #V1402) to the luciferine detection reagent (PROMEGA, #V1402). After an incubation period of 20 minutes, the luminescent signal is measured with Envision 2104 Multilabel Reader (PERKIN ELMER).

The target of experiment [2] is AOC2 (Homo sapiens (Human), UniProt O75106). As to the kind of experiment: AOC2 biochemical assay (Amplex Red). The procedure: An aliquot of 5 μL of the compound dilution is added to a 96 well plate (flat bottom F, black, GREINER bio-one, #655900) in a DMSO concentration of 2%. […] Cells are cultured for 3 days in EMEM culture medium containing 10% FCS (#04-00-1A, Biological Industries). After washing twice with ice cold PBS, cells are lysed by mechanic homogenation and cleared supernatants are shock frozen in liquid nitrogen and stored at -80° C. […] An Aliquot of 45 μL is added to the compound dilution and incubated for 30 min at 37° C. The enzymatic reaction is started with the addition of 50 μL of Amplex® Red reaction mix (final assay concentration: 100 mM sodiumphosphate, 120 μM Amplex® Red reagent (#A22177 Molecular Probes), 1.5 U/mL Horseradish Peroxidase (#P8375 Sigma-Aldrich), 2 mM phenylethylamine (#[…] Sigma-Aldrich), 0.05% Pluronic F-127 (#P3000MP Sigma-Aldrich), pH 7.4, 37° C.). The turnover per time of the substrate is determined directly with a fluorescence reader (Ex 540 nm/Em 590 nm) like Envision 2104 Multilabel Reader (PERKIN ELMER) for 60 min.
Chain of AOC2 (O75106 whole entry): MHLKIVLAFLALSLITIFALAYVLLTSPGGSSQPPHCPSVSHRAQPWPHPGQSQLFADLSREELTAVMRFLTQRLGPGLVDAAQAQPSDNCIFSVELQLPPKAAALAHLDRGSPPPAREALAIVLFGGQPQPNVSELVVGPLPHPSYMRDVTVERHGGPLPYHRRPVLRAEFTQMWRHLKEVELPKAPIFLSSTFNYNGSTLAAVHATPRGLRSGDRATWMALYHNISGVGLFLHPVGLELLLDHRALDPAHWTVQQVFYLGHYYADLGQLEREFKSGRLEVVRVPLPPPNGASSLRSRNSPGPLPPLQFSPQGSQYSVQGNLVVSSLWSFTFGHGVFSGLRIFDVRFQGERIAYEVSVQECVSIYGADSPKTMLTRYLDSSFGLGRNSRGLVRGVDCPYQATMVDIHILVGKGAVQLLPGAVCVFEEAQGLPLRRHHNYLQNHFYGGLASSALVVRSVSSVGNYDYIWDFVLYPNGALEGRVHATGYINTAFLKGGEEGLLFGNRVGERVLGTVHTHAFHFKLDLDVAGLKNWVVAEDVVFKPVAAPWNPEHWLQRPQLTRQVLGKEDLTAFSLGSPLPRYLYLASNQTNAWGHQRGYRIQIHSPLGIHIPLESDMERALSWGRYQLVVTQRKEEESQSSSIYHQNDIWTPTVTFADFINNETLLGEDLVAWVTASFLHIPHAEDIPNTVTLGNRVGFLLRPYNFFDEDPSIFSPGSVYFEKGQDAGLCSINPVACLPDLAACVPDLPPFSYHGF

Experiment [3] concerns the target AOC1 (Homo sapiens (Human), UniProt P19801). As to the kind of experiment: AOC1 biochemical assay (Amplex Red). The procedure:
The Amplex® Red Assay (available from Thermo Fisher Scientific) provides a sensitive method for the detection of H2O2 generated during enzymatic reactions like the amine oxidation catalyzed by AOC1. The assay reagent is a colorless substrate (N-acetyl-3,7-dihydroxyphenoxazine) that reacts in a 1:1 stoichiometry with hydrogen peroxide (H2O2) to produce the fluorescent dye resorufin (7-hydroxyphenoxazin-3-one, excitation/emission maxima=570/585 nm).
An aliquot of 3 μL of the compound dilution is added to a 384 well plate (Optiplate, PS, flat bottom F, black, PERKIN ELMER, #6007270) in a DMSO concentration of 6.6%.
An AOC1 enzyme aliquot (#8297-AO-010, R&D Systems) is thawed on ice, diluted in reaction buffer and added in a volume of 7 μL to the wells to give a final assay concentration of 1 ng/well. After incubation of inhibitor and enzyme for 30 minutes at 37° C., the enzymatic reaction is started with the addition of 10 μL of Amplex® Red reaction mix (final assay concentration: 100 mM sodiumphosphate, 120 μM Amplex® Red reagent (#A22177 Molecular Probes), 1.5 U/mL Horseradish Peroxidase (#P8375 Sigma-Aldrich), 200 μM putrescine (#P7505 Sigma-Alrdich), 0.05% Pluronic F-127 (#P3000MP Sigma-Aldrich), pH 7.4, 37° C.).
After an incubation for 30 minutes at 37° C. the turnover of the substrate is determined directly (or after the addition of an excess of an amine-oxidase inhibitor) with a fluorescence reader (Ex 540 nm/Em 590 nm) like Envision 2104 Multilabel Reader (PERKIN ELMER).

Setting [4] is: comparison table, read-out: IC50 AOC3.
Where [5] appears, read: comparison table, read-out: IC50 AOC2.

Chain of AOC1 (P19801 20-751): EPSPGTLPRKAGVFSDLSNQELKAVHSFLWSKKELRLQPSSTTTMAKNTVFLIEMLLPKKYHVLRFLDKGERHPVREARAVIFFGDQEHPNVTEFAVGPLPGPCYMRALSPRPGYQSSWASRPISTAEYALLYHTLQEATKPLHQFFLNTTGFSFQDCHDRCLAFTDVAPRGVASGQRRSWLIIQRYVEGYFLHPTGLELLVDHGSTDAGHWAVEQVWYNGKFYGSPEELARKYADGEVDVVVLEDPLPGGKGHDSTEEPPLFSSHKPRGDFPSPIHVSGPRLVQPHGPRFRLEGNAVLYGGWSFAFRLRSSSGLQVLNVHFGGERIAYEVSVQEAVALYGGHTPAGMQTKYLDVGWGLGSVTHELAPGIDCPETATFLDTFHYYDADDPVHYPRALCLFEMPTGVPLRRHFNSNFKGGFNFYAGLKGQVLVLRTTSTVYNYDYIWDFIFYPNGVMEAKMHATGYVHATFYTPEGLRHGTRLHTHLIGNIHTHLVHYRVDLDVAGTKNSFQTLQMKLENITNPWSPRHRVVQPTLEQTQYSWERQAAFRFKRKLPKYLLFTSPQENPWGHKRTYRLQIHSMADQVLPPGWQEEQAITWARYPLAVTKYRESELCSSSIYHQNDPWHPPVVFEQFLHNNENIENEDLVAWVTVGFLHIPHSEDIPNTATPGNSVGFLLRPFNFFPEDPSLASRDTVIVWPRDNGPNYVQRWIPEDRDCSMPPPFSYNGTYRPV

For `NC/C(=C\F)COc1ccc(S(=O)(=O)N2CC[C@@H](O)C2)cn1` [Example 36], the IC50 is 67 nM in experiment [1] (read-out: AOC3 IC50), 551 nM in experiment [2] (read-out: AOC2 IC50) and more than 50 µM in experiment [3] (read-out: AOC1 IC50).

In the case of `NC/C(=C\F)COc1ccc(S(=O)(=O)N2CC(F)(F)C2)cn1` [Example 37], the IC50 in experiment [1] (read-out: AOC3 IC50) amounted to 15 nM; in experiment [2] (read-out: AOC2 IC50), 451 nM; in experiment [3] (read-out: AOC1 IC50), 22.6 µM.

On to `NC/C(=C\F)COc1ccc(S(=O)(=O)N2CCCC2)cn1` [Example 38], for which the values for the IC50 in experiment [1] (read-out: AOC3 IC50), in experiment [2] (read-out: AOC2 IC50) and in experiment [3] (read-out: AOC1 IC50) were 13 nM, 278 nM and more than 50 µM, respectively.

With `NC/C(=C\F)COc1ccc(S(=O)(=O)N2CCC2)cn1` [Example 39], the concentration for half-maximal inhibition (IC50) is 19 nM in experiment [1] (read-out: AOC3 IC50), 262 nM in experiment [2] (read-out: AOC2 IC50) and 17 µM in experiment [3] (read-out: AOC1 IC50).

In the case of `COC1CCN(S(=O)(=O)c2ccc(OC/C(=C/F)CN)nc2)C1.O=C(O)C(F)(F)F` (centres unmarked) [Example 40], the IC50 in experiment [1] (setting [4]) was 26 nM; in experiment [1] (read-out: AOC3 IC50), 26 nM; in experiment [2] (setting [5]), 125 nM; in experiment [2] (read-out: AOC2 IC50), 125 nM; in experiment [3] (comparison table, unit μM, read-out: IC50 AOC1), more than 50 µM; in experiment [3] (read-out: AOC1 IC50), more than 50 µM. Also, the “fold less active against AOC2 as compared to AOC3 (ratio IC50 AOC2/IC50 AOC3)” value in experiment [2] is on record as “ca. 5 fold”.

As for `NC/C(=C\F)COc1ccc(S(=O)(=O)N2CC3CC3C2)cn1` (centres unmarked) [Example 41], the values for the IC50 in experiment [1] (read-out: AOC3 IC50), in experiment [2] (read-out: AOC2 IC50) and in experiment [3] (read-out: AOC1 IC50) were 5 nM, 123 nM and 25.4 µM, respectively.

For the molecule `COC1CN(S(=O)(=O)c2ccc(OC/C(=C/F)CN)nc2)C1` [Example 42], the IC50 is 20 nM in experiment [1] (setting [4]); 20 nM in experiment [1] (read-out: AOC3 IC50); 87 nM in experiment [2] (setting [5]); 87 nM in experiment [2] (read-out: AOC2 IC50); more than 50 µM in experiment [3] (comparison table, read-out: IC50 AOC1); more than 50 µM in experiment [3] (read-out: AOC1 IC50).

For `NC/C(=C\F)COc1ccc(S(=O)(=O)N2CCC(F)(F)C2)cn1` [Example 43], the IC50 in experiment [1] (read-out: AOC3 IC50) was found to be 16 nM; in experiment [2] (read-out: AOC2 IC50), 69 nM; in experiment [3] (read-out: AOC1 IC50), 36.5 µM.

For `CNC(=O)C1CCN(S(=O)(=O)c2ccc(OC/C(=C/F)CN)nc2)CC1` [Example 44, 1-[6-((E)-2-Aminomethyl-3-fluoro-allyloxy)-pyridine-3-sulfonyl]-piperidine-4-carboxylic acid methylamide trifluoroacetate], the IC50 in experiment [1] (read-out: AOC3 IC50) is 14 nM; in experiment [2] (read-out: AOC2 IC50), 574 nM; in experiment [3] (read-out: AOC1 IC50) it was more than 50 µM.

As for `NC/C(=C\F)COc1ccc(S(=O)(=O)N2CCC(O)CC2)cn1.O=C(O)C(F)(F)F` [Example 45], the IC50 in experiment [1] (read-out: AOC3 IC50) stood at 10 nM; in experiment [2] (read-out: AOC2 IC50), 307 nM; in experiment [3] (read-out: AOC1 IC50), 11.4 µM. Also, in experiment [2], the “fold less active against AOC2 as compared to AOC3 (ratio IC50 AOC2/IC50 AOC3)” value was “ca. 30 fold”.

On to `COC1CCN(S(=O)(=O)c2ccc(OC/C(=C/F)CN)nc2)CC1` [Example 46], for which the IC50 is 10 nM in experiment [1] (read-out: AOC3 IC50), 234 nM in experiment [2] (read-out: AOC2 IC50) and more than 50 µM in experiment [3] (read-out: AOC1 IC50).

With `NC/C(=C\F)COc1ccc(S(=O)(=O)N2CCCCC2)cn1` [Example 47], the IC50 was found to be 5 nM in experiment [1] (read-out: AOC3 IC50), 144 nM in experiment [2] (read-out: AOC2 IC50) and 23.2 µM in experiment [3] (read-out: AOC1 IC50).

As to `CC1(O)CCN(S(=O)(=O)c2ccc(OC/C(=C/F)CN)nc2)CC1` [Example 48], the half-maximal inhibitory concentration (IC50) in experiment [1] (read-out: AOC3 IC50) turned out to be 24 nM; in experiment [2] (read-out: AOC2 IC50), 67 nM; in experiment [3] (read-out: AOC1 IC50) it was 1.49 µM.

`NC/C(=C\F)COc1ccc(S(=O)(=O)N2CC[C@H](C(N)=O)C2)cn1` [Example 49]: the concentration for half-maximal inhibition (IC50) in experiment [1] (read-out: AOC3 IC50) is 21 nM; in experiment [2] (read-out: AOC2 IC50), 50 nM; in experiment [3] (read-out: AOC1 IC50) it was more than 50 µM.

`NC/C(=C\F)COc1ccc(S(=O)(=O)N2CCC(O)(C(F)(F)F)CC2)cn1` [Example 50]: the values for the IC50 in experiment [1] (read-out: AOC3 IC50), in experiment [2] (read-out: AOC2 IC50) and in experiment [3] (read-out: AOC1 IC50) were 20 nM, 24 nM and more than 50 µM, respectively.
